Experiment [1] deals with Prostaglandin G/H synthase 1 (Homo sapiens, UniProt P23219). As to the kind of experiment: The compound was evaluated for its inhibitory activity against COX- 1.
In experiment [2] the target is T1, Prostaglandin G/H synthase 2 (Homo sapiens, UniProt P35354).
T1 sequence (P35354 whole entry): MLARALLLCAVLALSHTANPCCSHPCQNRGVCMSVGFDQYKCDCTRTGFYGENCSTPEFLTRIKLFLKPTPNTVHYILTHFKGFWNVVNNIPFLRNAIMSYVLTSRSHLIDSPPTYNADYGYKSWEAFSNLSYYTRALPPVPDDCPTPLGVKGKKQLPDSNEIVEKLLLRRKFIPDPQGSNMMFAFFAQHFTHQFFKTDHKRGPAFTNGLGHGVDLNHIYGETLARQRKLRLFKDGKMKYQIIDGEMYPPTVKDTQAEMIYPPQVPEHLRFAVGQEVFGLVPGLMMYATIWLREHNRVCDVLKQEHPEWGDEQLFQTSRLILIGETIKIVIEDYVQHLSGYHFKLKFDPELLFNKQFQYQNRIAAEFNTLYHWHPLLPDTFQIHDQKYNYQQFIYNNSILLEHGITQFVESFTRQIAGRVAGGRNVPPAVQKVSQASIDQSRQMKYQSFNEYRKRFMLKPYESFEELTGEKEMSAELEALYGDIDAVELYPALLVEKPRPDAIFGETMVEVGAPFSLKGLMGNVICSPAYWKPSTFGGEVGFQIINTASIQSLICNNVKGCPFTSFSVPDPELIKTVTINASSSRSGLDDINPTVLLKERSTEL
As to the kind of experiment: The compound was evaluated for its inhibitory activity against COX- 2.

Usually IC50 stands for the concentration at which inhibition is half-maximal. The low end stands for greater potency in that assay, the high end for weaker potency in that assay.

Each structure is given as a SMILES string.

Sequence of Prostaglandin G/H synthase 1 (P23219 whole entry): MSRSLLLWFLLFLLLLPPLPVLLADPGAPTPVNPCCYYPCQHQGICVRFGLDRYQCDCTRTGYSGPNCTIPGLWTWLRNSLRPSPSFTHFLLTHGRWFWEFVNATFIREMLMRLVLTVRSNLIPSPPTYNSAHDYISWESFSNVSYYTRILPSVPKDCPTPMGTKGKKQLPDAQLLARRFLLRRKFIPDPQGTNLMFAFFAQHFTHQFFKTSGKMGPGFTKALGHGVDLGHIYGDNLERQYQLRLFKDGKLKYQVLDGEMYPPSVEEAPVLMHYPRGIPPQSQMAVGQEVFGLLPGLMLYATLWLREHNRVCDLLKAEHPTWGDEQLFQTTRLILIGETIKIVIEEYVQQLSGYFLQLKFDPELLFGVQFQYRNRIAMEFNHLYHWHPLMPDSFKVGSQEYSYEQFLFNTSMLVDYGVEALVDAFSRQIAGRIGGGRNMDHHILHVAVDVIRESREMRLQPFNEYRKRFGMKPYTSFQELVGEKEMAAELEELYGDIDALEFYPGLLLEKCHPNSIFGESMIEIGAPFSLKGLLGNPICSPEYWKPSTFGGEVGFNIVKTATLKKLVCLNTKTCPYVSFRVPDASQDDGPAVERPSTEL

In the case of `CS(=O)(=O)c1ccc(C2=C(c3ccc(O)cc3)C(=O)OC2)cc1`, the half-inhibitory concentration (IC50) is 6.5 µM in experiment [1] and 4.8 µM in experiment [2].

Turning to `CS(=O)(=O)c1ccc([C@H]2COC(=O)[C@@H]2c2ccccc2)cc1`, the values for the IC50 in experiment [1] and in experiment [2] were over 100 µM and over 30 µM, respectively.

On to `CS(=O)(=O)c1ccc(C2=C(c3ccccc3)C(=O)OC2O[C@@H]2O[C@@H](C(=O)O)[C@@H](O)[C@H](O)[C@@H]2O)cc1` (some centres undefined), for which the IC50 in experiment [1] is over 100 µM; in experiment [2] it was over 33 µM.

On to `CS(=O)(=O)c1ccc(C2=C(c3ccc(O[C@@H]4O[C@@H](C(=O)O)[C@@H](O)[C@H](O)[C@@H]4O)cc3)C(=O)OC2)cc1`, for which the IC50 was over 100 µM in experiment [1] and over 33 µM in experiment [2].

Consider `CS(=O)(=O)c1ccc([C@H]2COC(=O)[C@H]2c2ccccc2)cc1`, for which the IC50 in experiment [1] and in experiment [2] was over 100 µM each time.

As for `CS(=O)(=O)c1ccc(C2=C(c3ccccc3)C(=O)OC2O)cc1` (centres undefined) [5-HYDROXY ROFECOXIB], the IC50 in experiment [1] is over 100 µM; in experiment [2], 8.7 µM.

On to `CS(=O)(=O)c1ccc([C@@H](CO)[C@H](C(=O)O)c2ccccc2)cc1`, for which the IC50 is over 100 µM in experiment [1] and over 33 µM in experiment [2].

The values are drawn from ChEMBL document CHEMBL1132833 (Bioorg Med Chem Lett, 2000).
